Measured values reported in patent US12285012B2, “Compositions comprising pyridine carboxylate herbicides with acetolactate synthase (ALS) inhibitor herbicides” (Corteva Agriscience LLC, priority 2018, dated 2025).
Like-named read-outs stand apart in the source and are kept apart here.

What was measured:
[1] = test system: spring wheat (TRZAS); assay type: in vivo, Triticum aestivum; settings: for Obs % visual injury: TRZAS
Method: (§1) The plants were grown for 7-36 days (d) in a greenhouse with an approximate 14-hour (h) photo-period which was maintained at about 23° C. during the day and 22° C. during the night. Nutrients and water were added on a regular basis and supplemental lighting was provided with overhead metal halide 1000-Watt lamps as necessary. The plants were employed for testing when they reached the second or third true leaf stage.
(§2) The emulsifiable concentrates also included a safener, cloquintocet-mexyl, at 120 grams active ingredient per liter (g ai/L), unless otherwise noted below.
(§3) Control plants were sprayed in the same manner with the solvent blank. All pyridine carboxylate herbicide (component a) application rates are given as “g ae/ha” and all ALS inhibitor (component b) application rates are given as “g ai/ha.”
(§4) The treated plants and control plants were placed in a greenhouse as described above and watered by sub-irrigation to prevent wash-off of the test compounds. After 20-22 d, the condition of the test plants as compared with that of the control plants was determined visually and scored on a scale of 0 to 100 percent where 0 corresponds to no injury and 100 corresponds to complete kill.

[2] = test system: large crabgrass (DIGSA, Digitaria sanguinalis); test: Greenhouse postemergence herbicidal effect; assay type: in vivo; settings: DIGSA; Flupyrsulfuron 10 g/ha
Source text: (§5) Seeds of the desired test plant species were planted in a 90:10% v/v (volume/volume) mixture of PRO-MIX® BX (Premier Tech Horticulture, Quakertown, PA, USA) and PROFILE® GREENS GRADE™ (Profile Products LLC, Buffalo Grove, IL, USA) planting mixture, which typically has a pH of 5.2 to 6.2 and an organic matter content of at least 50 percent, in plastic pots with a surface area of 103.2 square centimeters (cm^2). In some aspects, to ensure good germination and healthy plants, a fungicide treatment and/or other chemical or physical treatment was applied. The plants were grown for 7-36 days (d) in a greenhouse with an approximate 14-hour (h) photo-period which was maintained at about 23° C. during the day and 22° C. during the night. Nutrients and water were added on a regular basis and supplemental lighting was provided with overhead metal halide 1000-Watt lamps as necessary. The plants were employed for testing when they reached the second or third true leaf stage.
(§6) Emulsifiable concentrates of each of each pyridine carboxylate herbicide (Compound A or Compound B) were prepared at 100 grams acid equivalent per liter (g ae/L). The emulsifiable concentrates also included a safener, cloquintocet-mexyl, at 120 grams active ingredient per liter (g ai/L), unless otherwise noted below. An aliquot of each emulsifiable concentrate was placed in a 25 mL glass vial and diluted with an aqueous mixture of 1.25% (v/v) ACTIROB® B esterified rapeseed oil (Bayer Crop Science, Research Triangle Park, NC, USA) or MSO® Concentrate with LECI-TECH® methylated soybean oil (Loveland Products, Loveland, CO, USA) to obtain concentrated stock solutions at the highest application rate for each herbicide, based upon a 12 milliliter (mL) application volume at a rate of 187 liters per hectare (L/ha). The concentrated stock solutions were further diluted with an aqueous mixture of 1.25% v/v ACTIROB® B or MSO® Concentrate with LECI-TECH® to obtain stock solutions at reduced application rates for each herbicide. Spray solutions of the herbicide combinations (Compound A or Compound B plus ALS herbicide) were prepared by adding weighed amounts or aliquots of the ALS herbicides to the stock solutions of Compound A or Compound B to form 12-mL spray solutions in two- or three-way combinations.
(§7) The spray solutions were applied to the plant material with an overhead Mandel track sprayer equipped with 8002E nozzles calibrated to deliver 187 L/ha over an application area of 0.503 square meters (m^2) at a spray height of 18 inches (43 centimeters (cm)) above the average plant canopy. Control plants were sprayed in the same manner with the solvent blank. All pyridine carboxylate herbicide (component a) application rates are given as “g ae/ha” and all ALS inhibitor (component b) application rates are given as “g ai/ha.”
as §4

[3] = test system: broad-leaf dock (RUMOB, Rumex obtusifolius); test: Greenhouse postemergence herbicidal effect; assay type: in vivo
Source text: as §5, §6, §7, §4

[4] = test system: common lambsquarters (CHEAL, Chenopodium album L.); test: Greenhouse postemergence herbicidal effect; assay type: in vivo
Method: as §5, with “In some aspects, to ensure good germination and healthy plants, a fungicide treatment and/or other chemical or physical treatment was applied.” left out
as §6, §7, §4

[5] = test system: kochia (KCHSC, Kochia scoparia); test: Greenhouse postemergence herbicidal effect; assay type: in vivo; settings: for Obs % visual injury: KCHSC
Method: as §5, with “In some aspects, to ensure good germination and healthy plants, a fungicide treatment and/or other chemical or physical treatment was applied.” left out
as §6, §7, §4

[6] = test system: spring barley (HORVS); assay type: in vivo, Hordeum vulgare
Method: as §1, §2, §3, §4

[7] = test system: wild chamomile (MATCH, Matricaria chamomilla); test: Greenhouse postemergence herbicidal effect; assay type: in vivo
Method: as §1, §2, §3, §4

[8] = test system: Russian thistle (SASKR, Salsola kali); test: Greenhouse postemergence herbicidal effect; assay type: in vivo
Method: as §1, §2, §3, §4

[9] = test system: Canadian thistle (CIRAR, Cirsium arvense); test: Greenhouse postemergence herbicidal effect; assay type: in vivo
Method: as §1, §2, §3, §4

[10] = test system: pigweed (AMARE, Amaranthus retroflexus); test: Greenhouse postemergence herbicidal effect; assay type: in vivo
Method: as §1, §2, §3, §4

[11] = test system: wild buckwheat (POLCO, Polygonum convolvulus); test: Greenhouse postemergence herbicidal effect; assay type: in vivo
Method: as §1, §2, §3, §4

[12] = test system: chickweed (STEME, Stellaria media); test: Greenhouse postemergence herbicidal effect; assay type: in vivo
Method: as §1, §2, §3, §4

[13] = test system: wild pansy (VIOTR, Viola tricolor); test: Greenhouse postemergence herbicidal effect; assay type: in vivo
Method: as §1, §2, §3, §4

[14] = test system: ivyleaf morningglory (IPOHE, Ipomoea hederacea); test: Greenhouse postemergence herbicidal effect; assay type: in vivo; settings: 8.75 g/ha
Source text: as §5, §6, §7, §4

[15] = test system: common sunflower (HELAN, Helianthus annuus); test: Greenhouse postemergence herbicidal effect; assay type: in vivo; settings: 8.75 g/ha
Source text: as §5, §6, §7, §4

[16] = test system: velvetleaf (ABUTH, Abutilon theophrasti); test: Greenhouse postemergence herbicidal effect; assay type: in vivo; settings: 8.75 g/ha
Source text: as §5, §6, §7, §4

[17] = test system: soybean (GLXMA, Glycine max); test: Greenhouse postemergence herbicidal effect; assay type: in vivo; settings: 8.75 g/ha
Source text: as §5, §6, §7, §4

[18] = test system: wild mustard (SINAR, Sinapis arvensis); test: Greenhouse postemergence herbicidal effect; assay type: in vivo
Method: as §1, §2, §3, §4

[19] = test system: winter rape (BRSNW, Brassica napus); test: Greenhouse postemergence herbicidal effect; assay type: in vivo
Method: as §1, §2, §3, §4

[20] = test system: winter wheat (TRZAW); test: Greenhouse postemergence crop phytotoxicity; assay type: in vivo, Triticum aestivum; settings: Pyroxsulam 10 g/ha
Source text: as §5
as §6, with “combinations. […]” for “combinations.”
as §4

[21] = test system: corn poppy (PAPRH, Papaver rhoeas); test: Greenhouse postemergence herbicidal effect; assay type: in vivo; settings: Pyroxsulam 10 g/ha
Method: as §1, §2, §3, §4

[22] = test system: cornflower (CENCY, Cyanus segetum); test: Greenhouse postemergence herbicidal effect; assay type: in vivo; settings: Pyroxsulam 10 g/ha
Method: as §1, §2, §3, §4

[23] = test system: field chamomile (ANTAR, Anthemis arvensis); test: Greenhouse postemergence herbicidal effect; assay type: in vivo; settings: Pyroxsulam 10 g/ha
Method: as §1, §2, §3, §4

[24] = test system: ivyleaf speedwell (VERHE, Veronica hederifolia); test: Greenhouse postemergence herbicidal effect; assay type: in vivo; settings: Pyroxsulam 10 g/ha
Method: as §1, §2, §3, §4

[25] = test system: cleavers (GALAP, Galium aparine); test: Greenhouse postemergence herbicidal effect; assay type: in vivo; settings: Pyroxsulam 10 g/ha
Method: as §1, §2, §3, §4

[26] = test system: bird's-eye speedwell (VERPE, Veronica persica); test: Greenhouse postemergence herbicidal effect; assay type: in vivo; settings: Pyroxsulam 10 g/ha
Method: as §1, §2, §3, §4

[27] = test system: pineapple weed (MATMT, Matricaria discoidea); test: Greenhouse postemergence herbicidal effect; assay type: in vivo; settings: Pyroxsulam 10 g/ha
Method: as §1, §2, §3, §4

[28] = test system: R-PAPRH = Papaver rhoeas (corn poppy), herbicide-resistant; test: Greenhouse postemergence herbicidal effect; assay type: in vivo; settings: Pyroxsulam 10 g/ha
Method: as §1, §2, §3, §4

[29] = test system: purple deadnettle (LAMPU, Lamium purpureum); test: Greenhouse postemergence herbicidal effect; assay type: in vivo; settings: Pyroxsulam 10 g/ha
Method: as §1, §2, §3, §4

[30] = test system: shepherd's purse (CAPBP, Capsella bursa-pastoris); test: Greenhouse postemergence herbicidal effect; assay type: in vivo; settings: Pyroxsulam 10 g/ha
Method: as §1, §2, §3, §4

[31] = test system: field violet (VIOAR, Viola arvensis); test: Greenhouse postemergence herbicidal effect; assay type: in vivo; settings: Pyroxsulam 10 g/ha
Method: as §1, §2, §3, §4

[32] = test system: false chamomile (MATIN, Matricaria inodora); test: Greenhouse postemergence herbicidal effect; assay type: in vivo; settings: Pyroxsulam 10 g/ha
Method: as §1, §2, §3, §4

[33] = test system: winter barley (HORVW); test: Greenhouse postemergence crop phytotoxicity; assay type: in vivo, Hordeum vulgare; settings: Pyroxsulam 10 g/ha
Source text: as §5
as §6, with “combinations. […]” for “combinations.”
as §4

flupyrsulfuron
% visual injury, Obs ([1]; 10 g/ha): 0%
Obs % visual injury ([1]; Flupyrsulfuron 10 g/ha): 15%
Obs % visual injury [2]: 0%
Obs % visual injury ([3]; RUMOB, Flupyrsulfuron 10 g/ha): 70%
% visual injury, Obs ([4]; 10 g/ha): 75%
Obs % visual injury ([4]; CHEAL, Flupyrsulfuron 10 g/ha): 63%
% visual injury, Obs ([5]; 10 g/ha): 15%
Obs % visual injury ([5]; Flupyrsulfuron 10 g/ha): 30%
% visual injury, Obs ([6]; 10 g/ha): 8%
% visual injury, Obs ([7]; 10 g/ha): 83%
% visual injury, Obs ([8]; 10 g/ha): 45%
Obs % visual injury ([9]; CIRAR, Flupyrsulfuron 10 g/ha): 84%
Obs % visual injury ([10]; AMARE, Flupyrsulfuron 10 g/ha): 97%
Obs % visual injury ([11]; POLCO, Flupyrsulfuron 10 g/ha): 91%
Obs % visual injury ([12]; STEME, Flupyrsulfuron 10 g/ha): 80%
Obs % visual injury ([13]; VIOTR, Flupyrsulfuron 10 g/ha): 8%

halosulfuron
% visual injury, Obs [14]: 0%
% visual injury, Obs [15]: 100%
% visual injury, Obs [16]: 95%
% visual injury, Obs [17]: 78%
% visual injury, Obs ([3]; 8.75 g/ha): 0%
% visual injury, Obs ([4]; 8.75 g/ha): 0%
% visual injury ([4]; Halosulfuron 8.75 g/ha): 10%
% visual injury, Obs ([5]; 8.75 g/ha): 0%
% visual injury ([5]; Halosulfuron 8.75 g/ha): 15%
% visual injury ([7]; Halosulfuron 8.75 g/ha): 78%
% visual injury, Obs ([9]; 8.75 g/ha): 10%
% visual injury ([9]; Halosulfuron 8.75 g/ha): 40%
% visual injury, Obs ([10]; 8.75 g/ha): 40%
% visual injury ([10]; Halosulfuron 8.75 g/ha): 95%
% visual injury, Obs ([11]; 8.75 g/ha): 5%
% visual injury ([11]; Halosulfuron 8.75 g/ha): 63%
% visual injury, Obs ([12]; 8.75 g/ha): 0%
% visual injury, Obs ([13]; 8.75 g/ha): 15%
% visual injury ([18]; Halosulfuron 8.75 g/ha): 95%
% visual injury ([19]; Halosulfuron 8.75 g/ha): 88%

pyroxsulam
% visual injury ([1]; Pyroxsulam 10 g/ha): 0%
% visual injury Obs ([1]; Pyroxsulam 15 g/ha): 0%
Obs % visual injury ([1]; Pyroxsulam 15 g/ha): 0%
% visual injury [20]: 0%
% visual injury Obs ([4]; Pyroxsulam 15 g/ha): 73%
Obs % visual injury ([5]; Pyroxsulam 15 g/ha): 13%
% visual injury ([5]; Pyroxsulam 10 g/ha): 30%
% visual injury Obs ([5]; Pyroxsulam 15 g/ha): 55%
% visual injury ([6]; Pyroxsulam 10 g/ha): 0%
% visual injury Obs ([6]; Pyroxsulam 15 g/ha): 0%
% visual injury [21]: 5%
% visual injury [22]: 70%
% visual injury [23]: 60%
% visual injury [24]: 70%
% visual injury [25]: 60%
% visual injury [26]: 75%
% visual injury ([7]; Pyroxsulam 10 g/ha): 60%
% visual injury Obs ([7]; Pyroxsulam 15 g/ha): 53%
% visual injury ([8]; Pyroxsulam 10 g/ha): 100%
% visual injury ([9]; Pyroxsulam 10 g/ha): 75%
% visual injury Obs ([9]; Pyroxsulam 15 g/ha): 48%
% visual injury Obs ([10]; Pyroxsulam 15 g/ha): 98%
% visual injury ([11]; Pyroxsulam 10 g/ha): 93%
% visual injury Obs ([11]; Pyroxsulam 15 g/ha): 94%
% visual injury ([12]; Pyroxsulam 10 g/ha): 100%
% visual injury [27]: 50%
% visual injury ([13]; Pyroxsulam 10 g/ha): 85%
% visual injury [28]: 10%
% visual injury [29]: 50%
% visual injury [30]: 90%
% visual injury [31]: 80%
% visual injury ([18]; Pyroxsulam 10 g/ha): 99%
% visual injury Obs ([18]; Pyroxsulam 15 g/ha): 73%
% visual injury [32]: 65%
% visual injury ([19]; Pyroxsulam 10 g/ha): 99%
% visual injury Obs ([19]; Pyroxsulam 15 g/ha): 68%
% visual injury [33]: 0%
